In patent US20220372585A1, “Sensors for Aromatic Compounds and Methods of Making and Using Same” (Washington University, priority 2021, published 2022):
Values joined by “and” are separate entries in the source; they are usually repeats but may differ in a detail not shown here. Equal entries are not always repeated. “Also recorded” adds a separate entry of the source.

Assays:
Type in all cases: cell-based, E. coli
E274Q TyrR = target: T1, E274Q TyrR (Escherichia coli, UniProt P07604, E274Q); assay: cell-based
T1 construct: expressed in transfected cells; host or cells: E. coli Nissle 1917 (EcN), plasmid pAGR102
T1 sequence (P07604 whole entry E274Q): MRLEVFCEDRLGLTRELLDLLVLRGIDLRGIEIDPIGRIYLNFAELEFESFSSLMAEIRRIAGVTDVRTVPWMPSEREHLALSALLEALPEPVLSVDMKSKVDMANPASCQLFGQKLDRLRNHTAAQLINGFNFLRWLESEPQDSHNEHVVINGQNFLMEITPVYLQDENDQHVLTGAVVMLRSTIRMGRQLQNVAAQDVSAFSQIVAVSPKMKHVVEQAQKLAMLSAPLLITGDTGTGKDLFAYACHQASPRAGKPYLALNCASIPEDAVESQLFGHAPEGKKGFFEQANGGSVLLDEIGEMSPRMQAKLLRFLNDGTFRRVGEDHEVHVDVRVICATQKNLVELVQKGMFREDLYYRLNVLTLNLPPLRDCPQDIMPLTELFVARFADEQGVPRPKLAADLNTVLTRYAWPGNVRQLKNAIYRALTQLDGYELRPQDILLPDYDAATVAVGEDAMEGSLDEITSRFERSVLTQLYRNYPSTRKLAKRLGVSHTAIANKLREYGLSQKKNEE
Experimental: (§1) Everything but (Eb) medium was prepared by supplementing M9 minimal medium with 1 mM MgSO4, […]), 0.4% w/v glucose, and all non-aromatic amino acids (0.8 mM alanine, 5 mM arginine, 0.4 mM asparagine, 0.4 mM aspartate, 0.1 mM cysteine, 0.6 mM glutamate, 0.6 mM glutamine, 0.8 mM glycine, 0.2 mM histidine, 0.4 mM isoleucine, 0.8 mM leucine, 0.4 mM lysine, 0.2 mM methionine, 0.4 mM proline, 10 mM serine, 0.4 mM threonine, and 0.6 mM valine). […] Experimental cultures were prepared by diluting overnight cultures 200× into 0.6 mL fresh Eb medium supplemented with the respective ligands (Phe and Tyr) in 2 mL 96-deep well plates (Eppendorf, Hamburg, Germany). Cultures were grown for 8 h at 37° C. and 250 rpm before sampled for fluorimetry or flow cytometry analysis. All medium was supplemented with the relevant antibiotics for plasmid maintenance (34 mg/ml chloramphenicol and 100 mg/ml spectinomycin).
(§2) […] culture samples were collected and transferred to 96-well assay microplates (clear, flat bottom black, Greiner Bio-One). The fluorescence and culture absorbance (Abs) were measured using a Tecan microplate reader (Infinite M200 Pro) as previously described. The fluorescence of GFP was measured with an excitation at 483 nm and emission at 530 nm. The Abs of the samples was measured at 600 nm. The measured fluorescence was normalized by dividing by the Abs and subtracting the same ratio obtained from non-fluorescent wild-type cells (Equation 1).
(§3) Flow cytometry was performed as previously described. […] Cytometry data was gated by forward and side scatter.

E274Q+D103S TyrR = target: T2, E274Q+D103S TyrR (Escherichia coli, UniProt P07604, D103S/E274Q); assay: cell-based
T2 construct: expressed in transfected cells; host or cells: E. coli Nissle 1917 (EcN), plasmid pAGR159
T2 sequence (P07604 whole entry D103S/E274Q): as the sequence (P07604 whole entry E274Q) above, with D103S counted along it
Experimental: as §1, §2, §3

E274Q+T14V TyrR = target: T3, E274Q+T14V TyrR (Escherichia coli, UniProt P07604, E274Q/T14V); assay: cell-based
T3 construct: expressed in transfected cells; host or cells: E. coli Nissle 1917 (EcN), plasmid pAGR157
T3 sequence (P07604 whole entry T14V/E274Q): as the sequence (P07604 whole entry E274Q) above, with T14V counted along it
Experimental: as §1, §2, §3

R10F TyrR = target: T4, R10F TyrR (Escherichia coli, UniProt P07604, R10F); assay: cell-based; conditions: ligand alone, listed as Phe
T4 construct: expressed in transfected cells; host or cells: E. coli Nissle 1917 (EcN), plasmid pAGR473
T4 sequence (P07604 whole entry R10F): as the sequence (P07604 whole entry E274Q) above, with R10F, Q274E counted along it
Experimental: as §1, §2, §3

wild-type TyrR = target: T5, wild-type TyrR (Escherichia coli, UniProt P07604); assay: cell-based
T5 construct: tyrR (WT); expressed in transfected cells; host or cells: E. coli Nissle 1917 (EcN)
T5 sequence (P07604 whole entry): as the sequence (P07604 whole entry E274Q) above, with Q274E counted along it
Experimental: as §1, §2, §3

E274Q+C7V TyrR = target: T6, E274Q+C7V TyrR (Escherichia coli, UniProt P07604, C7V/E274Q); assay: PtyrP-GFP reporter, E274Q+C7V TyrR (pAGR160) in EcN
T6 construct: expressed in transfected cells; host or cells: E. coli Nissle 1917 (EcN), plasmid pAGR160
T6 sequence (P07604 whole entry C7V/E274Q): as the sequence (P07604 whole entry E274Q) above, with C7V counted along it
Experimental: as §1, §2, §3

E274Q+L11G TyrR = target: T7, E274Q+L11G TyrR (Escherichia coli, UniProt P07604, E274Q/L11G); assay: PtyrP-GFP reporter, E274Q+L11G TyrR (pAGR155) in EcN
T7 construct: expressed in transfected cells; host or cells: E. coli Nissle 1917 (EcN), plasmid pAGR155
T7 sequence (P07604 whole entry L11G/E274Q): as the sequence (P07604 whole entry E274Q) above, with L11G counted along it
Experimental: as §1, §2, §3

E274Q+T14G TyrR = target: T8, E274Q+T14G TyrR (Escherichia coli, UniProt P07604, E274Q/T14G); assay: PtyrP-GFP reporter, E274Q+T14G TyrR (pAGR156) in EcN
T8 construct: expressed in transfected cells; host or cells: E. coli Nissle 1917 (EcN), plasmid pAGR156
T8 sequence (P07604 whole entry T14G/E274Q): as the sequence (P07604 whole entry E274Q) above, with T14G counted along it
Experimental: as §1, §2, §3

E274Q+D103H TyrR = target: T9, E274Q+D103H TyrR (Escherichia coli, UniProt P07604, D103H/E274Q); assay: PtyrP-GFP reporter, E274Q+D103H TyrR (pAGR158) in EcN
T9 construct: expressed in transfected cells; host or cells: E. coli Nissle 1917 (EcN), plasmid pAGR158
T9 sequence (P07604 whole entry D103H/E274Q): as the sequence (P07604 whole entry E274Q) above, with D103H counted along it
Experimental: as §1, §2, §3

[1] = target: T10, E274Q TyrR with T14V and D103S combined (Escherichia coli, UniProt P07604, D103S/E274Q/T14V); assay: PtyrP-GFP reporter, E274Q TyrR with both T14V and D103S mutations combined; conditions: both mutations (T14V, D103S) combined in E274Q TyrR
T10 construct: tyrR (WT); expressed in transfected cells; host or cells: E. coli Nissle 1917 (EcN)
T10 sequence (P07604 whole entry T14V/D103S/E274Q): as the sequence (P07604 whole entry E274Q) above, with T14V, D103S counted along it
Experimental: as §1, with “All medium was supplemented with the relevant antibiotics for plasmid maintenance (34 mg/ml chloramphenicol and 100 mg/ml spectinomycin).” left out
as §2, with “1). […]” for “1).”

[2] = wild-type TyrR, pAGR010, FIG. 1C, 8 h
[3] = E274Q+C7V TyrR, pAGR160, FIG. 10A, 8 h
[4] = E274Q+L11G TyrR, pAGR155, FIG. 10B, 8 h
[5] = E274Q+T14G TyrR, pAGR156, FIG. 10C, 8 h
[6] = E274Q+D103H TyrR, pAGR158, FIG. 10D, 8 h

N[C@@H](Cc1ccccc1)C(=O)O [Phenylalanine, phenylalanine]
fold induction of PtyrP (E274Q TyrR): 16 fold
EC50 (E274Q TyrR; KA (half maximal constant), pAGR102, FIG. 2C, 2D, 8 h): 40 µM and 42 µM
Fmax (E274Q TyrR; pAGR102, FIG. 2C, 2D, 8 h): 12800
Fmin (E274Q TyrR; pAGR102, FIG. 2C, 2D, 8 h): 982
n (Hill coefficient) (E274Q TyrR; pAGR102, FIG. 2C, 2D, 8 h): 2
EC50 (E274Q+D103S TyrR; KA (half maximal constant), pAGR159, FIG. 2C, 2F, 8 h): 130 µM and 128 µM
KA relative to the E274Q mutant (E274Q+D103S TyrR; higher than E274Q): 3 fold
Fmax (E274Q+D103S TyrR; pAGR159, FIG. 2C, 2F, 8 h): 10700
Fmin (E274Q+D103S TyrR; pAGR159, FIG. 2C, 2F, 8 h): 1310
n (Hill coefficient) (E274Q+D103S TyrR; pAGR159, FIG. 2C, 2F, 8 h): 0.7
EC50 (E274Q+T14V TyrR; KA (half maximal constant), pAGR157, FIG. 2C, 2E, 8 h): 80 µM and 83 µM
KA relative to the E274Q mutant (E274Q+T14V TyrR; higher than E274Q): 2 fold
Fmax (E274Q+T14V TyrR; pAGR157, FIG. 2C, 2E, 8 h): 7560
Fmin (E274Q+T14V TyrR; pAGR157, FIG. 2C, 2E, 8 h): 814
n (Hill coefficient) (E274Q+T14V TyrR; pAGR157, FIG. 2C, 2E, 8 h): 1.4
response of PtyrP (R10F TyrR): lack of response; also recorded: no significant response
fold induction of PtyrP (wild-type TyrR; overexpression of wild-type TyrR): 4 fold
Fmax (wild-type TyrR; [2]): 10500
Fmin (wild-type TyrR; [2]): 2900
n (Hill coefficient) (wild-type TyrR; [2]): 5.5
EC50 (wild-type TyrR; wild-type TyrR, pAGR010, FIG. 1C, 8 h, read-out: KA (half maximal constant)): 73 µM
EC50 (E274Q+C7V TyrR): 46 µM
Fmax (E274Q+C7V TyrR; [3]): 10800
Fmin (E274Q+C7V TyrR; [3]): 1120
n (Hill coefficient) (E274Q+C7V TyrR; [3]): 2.5
EC50 (E274Q+L11G TyrR): 45 µM
Fmax (E274Q+L11G TyrR; [4]): 12900
Fmin (E274Q+L11G TyrR; [4]): 5570
n (Hill coefficient) (E274Q+L11G TyrR; [4]): 2.2
EC50 (E274Q+T14G TyrR): 37 µM
Fmax (E274Q+T14G TyrR; [5]): 12400
Fmin (E274Q+T14G TyrR; [5]): 1430
n (Hill coefficient) (E274Q+T14G TyrR; [5]): 2.4
EC50 (E274Q+D103H TyrR): 110 µM
Fmax (E274Q+D103H TyrR; [6]): 11800
Fmin (E274Q+D103H TyrR; [6]): 2150
n (Hill coefficient) (E274Q+D103H TyrR; [6]): 1
response of PtyrP [1]: eliminated
